Results on 30 compounds are retold here after ChEMBL document CHEMBL3301458, “MMV Malaria Box hERG screening”.

Calls of active or inactive are those of the source. The rule behind the calls is not given here.

For data set [1], the target named is T1, hERG (Kv11.1, KCNH2) (Homo sapiens, UniProt Q12809). Briefly: in vitro.
Description: MMV: Malaria Box compounds were tested for inhibition of the human ether a go-go related gene (hERG), Kv11.1 channel, using IonWorks 384-well patch clamp electrophysiology at 1.1uM (3 independent assay plates up to 12 cells per concentration).
Data set [2] has as its target T1, hERG (Kv11.1, KCNH2). The data set can be described thus: in vitro. The source holds these as a separate data set.
Description: MMV: Malaria Box compounds were tested for inhibition of the human ether a go-go related gene (hERG), Kv11.1 channel, using IonWorks 384-well patch clamp electrophysiology at 11.1uM (3 independent assay plates up to 12 cells per concentration).

T1 sequence (Q12809 whole entry): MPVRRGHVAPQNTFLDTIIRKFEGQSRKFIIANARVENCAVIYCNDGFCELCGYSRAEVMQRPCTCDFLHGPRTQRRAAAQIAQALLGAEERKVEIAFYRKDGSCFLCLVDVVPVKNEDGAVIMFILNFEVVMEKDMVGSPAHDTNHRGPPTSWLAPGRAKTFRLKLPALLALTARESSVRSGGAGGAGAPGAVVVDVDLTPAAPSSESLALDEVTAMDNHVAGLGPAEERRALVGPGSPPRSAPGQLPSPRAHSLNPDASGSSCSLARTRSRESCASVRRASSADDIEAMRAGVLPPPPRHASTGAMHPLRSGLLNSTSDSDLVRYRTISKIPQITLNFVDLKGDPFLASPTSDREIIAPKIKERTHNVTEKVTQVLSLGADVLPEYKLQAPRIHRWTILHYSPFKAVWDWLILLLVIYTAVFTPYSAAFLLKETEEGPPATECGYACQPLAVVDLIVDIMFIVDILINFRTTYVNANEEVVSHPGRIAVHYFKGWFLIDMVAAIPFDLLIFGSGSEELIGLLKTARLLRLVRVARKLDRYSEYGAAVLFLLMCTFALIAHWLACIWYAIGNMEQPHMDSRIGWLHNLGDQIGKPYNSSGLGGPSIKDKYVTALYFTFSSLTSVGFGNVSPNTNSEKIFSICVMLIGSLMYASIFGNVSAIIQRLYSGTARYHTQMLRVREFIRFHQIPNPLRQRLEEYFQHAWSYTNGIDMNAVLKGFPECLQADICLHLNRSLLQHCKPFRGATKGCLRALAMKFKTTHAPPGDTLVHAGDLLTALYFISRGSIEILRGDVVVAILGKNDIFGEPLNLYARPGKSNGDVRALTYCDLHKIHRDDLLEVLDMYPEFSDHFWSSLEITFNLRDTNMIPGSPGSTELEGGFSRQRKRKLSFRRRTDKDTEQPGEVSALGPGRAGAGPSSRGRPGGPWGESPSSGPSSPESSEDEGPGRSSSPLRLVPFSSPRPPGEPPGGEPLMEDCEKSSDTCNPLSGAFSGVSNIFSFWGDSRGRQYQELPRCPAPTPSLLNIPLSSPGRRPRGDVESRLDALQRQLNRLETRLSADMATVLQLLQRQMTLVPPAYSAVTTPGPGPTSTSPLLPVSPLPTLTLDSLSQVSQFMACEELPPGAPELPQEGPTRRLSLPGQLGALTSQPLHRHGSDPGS

A word on the inhibition: it is the drop in the measured response relative to a control, in per cent. On to `CCOc1cc(Cl)c(C(C)NC(=O)c2cccc(OC)c2)cc1OCC` (stereo not given), for which the inhibition at 1.1 µM in data set [1] was -3%. Also, the inhibition at 11.1 µM in data set [2] was 9% (inactive).

Take `CCCCc1ccc(NS(=O)(=O)c2cc3c4c(c2)CCN4C(=O)CC3)cc1`: the inhibition at 1.1 µM in data set [1] amounted to 2%. The inhibition at 11.1 µM in data set [2] was found to be 26%.

With `COc1ccccc1N1CCN(C(CNS(=O)(=O)c2ccc(Cl)cc2)c2cccnc2)CC1` (stereo not given), in data set [1], the inhibition at 1.1 µM was found to be 4%. The inhibition at 11.1 µM in data set [2] is 44%.

Regarding `c1ccc(/C2=N/c3ccccc3/N=C(/c3ccccc3)c3ccccc32)cc1`, in data set [1], the inhibition at 1.1 µM came out at 7%. The inhibition at 11.1 µM in data set [2] is 3% (inactive).

Take `CN1CCN(c2c3c(c(C#N)c4nc5ccccc5n24)CCC3)CC1`: the inhibition at 1.1 µM in data set [1] amounted to 7%. Also, the inhibition at 11.1 µM in data set [2] amounted to 45%.

Take `CSc1ccccc1C(=O)Nc1nc(-c2ccccn2)cs1`: the inhibition at 1.1 µM in data set [1] came to 15%. For the same compound, in data set [2], the inhibition at 11.1 µM stood at 39%.

Regarding `Clc1ccc2[nH]c3c(NCCCN4CCOCC4)ncnc3c2c1`, the inhibition at 1.1 µM in data set [1] came out at 29%. Also, the inhibition at 11.1 µM in data set [2] was 89% (active).

As to `CCOC(=O)c1c(C)n(-c2ccccc2)c2ccc(OC(=O)c3cc(OC)c(OC)c(OC)c3)cc12`, in data set [1], the inhibition at 1.1 µM was -6%. The inhibition at 11.1 µM in data set [2] is 11% (inactive).

On to `COc1ccc(N2CCN(C(CNC(=O)CC(C)(C)C)c3ccc4c(c3)OCO4)CC2)cc1` (stereo not given), for which the inhibition at 1.1 µM in data set [1] was -5%. Further, the inhibition at 11.1 µM in data set [2] was 24% (inactive).

For `CCCn1c(=N)c(C(=O)NC2CCCCC2)cc2c(=O)n3cccc(C)c3nc21`, in data set [1], the inhibition at 1.1 µM was determined as 63%. Also, the inhibition at 11.1 µM in data set [2] amounted to 105%.

Regarding `COCCNC(=O)c1ccc(OC2CCN(Cc3ccc(F)c(F)c3)CC2)c(Cl)c1`, the inhibition at 1.1 µM in data set [1] was 7%. The inhibition at 11.1 µM in data set [2] was 68% (active).

Regarding `COc1ccc2c(c1OC)C(=O)N1c3ccccc3N=C(c3ccc(C)cc3)CC21` (stereo not given), the inhibition at 1.1 µM in data set [1] worked out at 25%. In addition, in data set [2], the inhibition at 11.1 µM was 10% (inactive).

As to `O=C(CCc1ccco1)NC1CCN(CC2(c3ccc(Cl)cc3)CCC2)CC1`, in data set [1], the inhibition at 1.1 µM turned out to be 10%. The inhibition at 11.1 µM in data set [2] was 65% (active).

As to `COc1ccc(-c2cn3c(C(=O)Nc4ccccc4Cl)c(-c4ccccc4)c4c3n2CCCC4)cc1`, in data set [1], the inhibition at 1.1 µM was 17%. In data set [2], the inhibition at 11.1 µM is 56% (active).

Consider `Cc1ccccc1OCCSc1nc2ccc(NC(=O)c3ccccc3)cc2s1`, for which, in data set [1], the inhibition at 1.1 µM is -9%. The inhibition at 11.1 µM in data set [2] was 2% (inactive).

Regarding `COc1cc(C(=O)ON=C(N)Cc2cccc3ccccc23)cc(OC)c1OC`, in data set [1], the inhibition at 1.1 µM was 26%. In data set [2], the inhibition at 11.1 µM is 89% (active).

Take `Cc1ccc(C2CC(C(F)(F)F)n3nc(C(=O)N4CCN(C(c5ccccc5)c5ccccc5)CC4)cc3N2)cc1` (stereo not given): the inhibition at 1.1 µM in data set [1] stood at 5%. Moreover, in data set [2], the inhibition at 11.1 µM was 8% (inactive).

Take `CN(C)c1ccc(C(O)(c2ccc(N(C)C)cc2)c2ccc(N(C)C)cc2)cc1` [METHYLROSANILINE]: in data set [1], the inhibition at 1.1 µM came to 48%. The inhibition at 11.1 µM in data set [2] is 103% (active).

Take `Cc1cc(Nc2ccc(Cl)cc2)n2nc(C(F)(F)F)nc2n1`: the inhibition at 1.1 µM in data set [1] amounted to 19%. For the same compound, the inhibition at 11.1 µM in data set [2] was 59% (active).

Consider `Cc1cc(Nc2cccc(F)c2)nc(NCc2ccccc2)n1`, for which the inhibition at 1.1 µM in data set [1] stood at 11%. In data set [2], the inhibition at 11.1 µM was 73% (active).

On to `Cc1sc(NC(=O)c2ccccc2)c(C(c2cccs2)N2CCN(c3ccccc3)CC2)c1C` (stereo not given), for which the inhibition at 1.1 µM in data set [1] was 9%. The inhibition at 11.1 µM in data set [2] is 9% (inactive).

As to `COc1ccccc1N1C(=N)SC(=Cc2ccc(OCc3ccccc3F)cc2)C1=O`, the inhibition at 1.1 µM in data set [1] was 18%. Also, in data set [2], the inhibition at 11.1 µM was 24% (inactive).

As to `Cn1c(=O)n(C)c2cc(CNCCNc3ccnc4cc(Cl)ccc34)ccc21`, in data set [1], the inhibition at 1.1 µM turned out to be 16%. Moreover, the inhibition at 11.1 µM in data set [2] is 60% (active).

`COc1ccc(-c2nc(NC(=O)CS(=O)(=O)c3ccc(F)cc3)sc2C)cc1`: the inhibition at 1.1 µM in data set [1] stood at 7%. Besides, in data set [2], the inhibition at 11.1 µM is 69% (active).

Take `Cc1ccc(S(=O)(=O)c2c(COC(=O)c3cccc(C)c3)c(-c3ccccc3)nn2C)cc1`: the inhibition at 1.1 µM in data set [1] was 4%. In addition, the inhibition at 11.1 µM in data set [2] was 12% (inactive).

As to `c1ccc(-c2ccc(-c3nc4ccccc4[nH]3)cc2)cc1`, in data set [1], the inhibition at 1.1 µM is -2%. Also, in data set [2], the inhibition at 11.1 µM was -8% (inactive).

For `CC(C)(C)c1ccc(C(=O)Nc2nc3ccccc3s2)cc1`, the inhibition at 1.1 µM in data set [1] is -3%. The inhibition at 11.1 µM in data set [2] is 7% (inactive).

With `Cc1ccc2cc3c(N)c4c(C)ccc(C)c4nc3nc2c1`, the inhibition at 1.1 µM in data set [1] came to 16%. In addition, the inhibition at 11.1 µM in data set [2] was 60% (active).

For `CN(C)CCNc1cc(-c2ccccc2)nc2ccccc12`, the inhibition at 1.1 µM in data set [1] amounted to 20%. In addition, in data set [2], the inhibition at 11.1 µM was 66% (active).

With `Oc1ccc(Cl)cc1CNc1nc2ccccc2[nH]1`, the inhibition at 1.1 µM in data set [1] worked out at 14%. Besides, in data set [2], the inhibition at 11.1 µM is 52% (active).
